Reference: ChEMBL document CHEMBL1127581, “Evolution of a novel series of [(N,N-dimethylamino)propyl]- and piperazinylbenzanilides as the first selective 5-HT1D antagonists” (J Med Chem, 1994)

Experiments:
[1] = target: 5-hydroxytryptamine receptor 4 (Homo sapiens, UniProt Q13639); test: Binding affinity against 5-hydroxytryptamine 4 receptor
[2] = target: T1, 5-hydroxytryptamine receptor 1A (Rattus norvegicus, UniProt P19327); test: Binding affinity towards 5-hydroxytryptamine 1A receptor in rat hippocampus with [3H]8-OH-DPAT; type: tissue-based
T1 sequence (P19327 whole entry): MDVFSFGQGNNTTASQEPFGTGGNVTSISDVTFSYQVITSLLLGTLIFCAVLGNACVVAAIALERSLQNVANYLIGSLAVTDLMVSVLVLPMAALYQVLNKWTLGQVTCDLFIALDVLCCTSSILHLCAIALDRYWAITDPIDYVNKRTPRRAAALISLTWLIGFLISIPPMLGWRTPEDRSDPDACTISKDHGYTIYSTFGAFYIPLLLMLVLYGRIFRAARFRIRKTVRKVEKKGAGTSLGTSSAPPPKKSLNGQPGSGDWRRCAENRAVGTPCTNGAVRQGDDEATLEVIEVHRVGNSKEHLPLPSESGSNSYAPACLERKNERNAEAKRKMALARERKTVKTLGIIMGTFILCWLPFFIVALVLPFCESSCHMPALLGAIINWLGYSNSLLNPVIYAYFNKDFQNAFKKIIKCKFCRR

[3] = target: Serotonin 3 (5-HT3) receptor; test: Binding affinity against the 5-hydroxytryptamine 3 receptor; type: protein-complex assay
[4] = target: T2, Adrenergic receptor alpha-2 (Homo sapiens, UniProt P08913+P18825+P18089); test: Binding affinity against alpha-2 adrenoceptor; type: protein assay
T2 sequence (P08913 whole entry): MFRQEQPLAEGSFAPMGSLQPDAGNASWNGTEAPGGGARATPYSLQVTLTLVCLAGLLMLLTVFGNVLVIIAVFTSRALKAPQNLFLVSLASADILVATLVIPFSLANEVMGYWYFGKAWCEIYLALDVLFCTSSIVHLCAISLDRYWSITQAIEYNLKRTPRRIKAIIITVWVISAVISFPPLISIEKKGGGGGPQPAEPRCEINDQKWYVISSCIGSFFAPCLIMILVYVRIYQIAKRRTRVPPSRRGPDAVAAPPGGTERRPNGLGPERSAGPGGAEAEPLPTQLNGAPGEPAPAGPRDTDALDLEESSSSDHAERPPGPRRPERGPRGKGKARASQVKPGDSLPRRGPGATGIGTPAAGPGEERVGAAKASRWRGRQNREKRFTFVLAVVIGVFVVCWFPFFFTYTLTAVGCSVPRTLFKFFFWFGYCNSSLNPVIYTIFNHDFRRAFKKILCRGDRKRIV
T2 sequence (P18825 whole entry): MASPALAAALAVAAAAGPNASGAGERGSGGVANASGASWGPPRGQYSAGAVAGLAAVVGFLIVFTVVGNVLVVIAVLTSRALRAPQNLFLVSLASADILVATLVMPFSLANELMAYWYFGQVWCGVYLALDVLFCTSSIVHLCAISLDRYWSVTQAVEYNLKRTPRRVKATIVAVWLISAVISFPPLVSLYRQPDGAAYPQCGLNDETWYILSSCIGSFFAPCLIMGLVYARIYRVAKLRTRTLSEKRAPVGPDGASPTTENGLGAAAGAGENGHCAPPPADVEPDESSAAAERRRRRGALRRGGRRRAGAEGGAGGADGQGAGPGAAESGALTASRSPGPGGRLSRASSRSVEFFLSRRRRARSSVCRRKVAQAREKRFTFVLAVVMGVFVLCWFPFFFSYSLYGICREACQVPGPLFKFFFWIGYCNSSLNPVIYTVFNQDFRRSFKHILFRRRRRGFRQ
T2 sequence (P18089 whole entry): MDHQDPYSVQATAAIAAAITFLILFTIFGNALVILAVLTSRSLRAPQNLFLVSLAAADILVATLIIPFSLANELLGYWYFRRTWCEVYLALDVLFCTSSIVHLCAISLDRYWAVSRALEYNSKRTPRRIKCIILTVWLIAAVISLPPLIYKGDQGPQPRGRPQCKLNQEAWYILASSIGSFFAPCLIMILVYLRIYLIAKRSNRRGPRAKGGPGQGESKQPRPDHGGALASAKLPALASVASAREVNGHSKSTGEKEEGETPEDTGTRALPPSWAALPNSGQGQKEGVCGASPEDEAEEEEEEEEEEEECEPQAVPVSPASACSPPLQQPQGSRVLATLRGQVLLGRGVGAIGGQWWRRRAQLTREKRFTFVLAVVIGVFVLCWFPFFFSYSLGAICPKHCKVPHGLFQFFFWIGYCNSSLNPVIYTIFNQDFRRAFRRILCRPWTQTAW

D(2) dopamine receptor = D(2) dopamine receptor (Homo sapiens, UniProt P14416); test: Binding affinity against dopamine D2 receptor
Chain of D(2) dopamine receptor (P14416 whole entry): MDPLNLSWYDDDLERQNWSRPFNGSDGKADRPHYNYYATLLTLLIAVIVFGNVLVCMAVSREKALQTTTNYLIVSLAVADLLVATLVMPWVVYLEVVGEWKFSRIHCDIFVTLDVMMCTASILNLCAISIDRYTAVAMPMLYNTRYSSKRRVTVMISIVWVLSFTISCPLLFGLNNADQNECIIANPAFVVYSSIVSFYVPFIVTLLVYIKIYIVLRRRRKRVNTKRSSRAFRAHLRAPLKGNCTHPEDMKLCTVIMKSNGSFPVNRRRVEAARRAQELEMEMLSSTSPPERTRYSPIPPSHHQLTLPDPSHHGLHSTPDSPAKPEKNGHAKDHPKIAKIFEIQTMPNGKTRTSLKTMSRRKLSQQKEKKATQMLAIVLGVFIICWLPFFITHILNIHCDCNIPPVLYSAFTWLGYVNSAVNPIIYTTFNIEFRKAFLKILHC

D(1A) dopamine receptor = D(1A) dopamine receptor (Homo sapiens, UniProt P21728); test: Binding affinity against dopamine receptor D1
Chain of D(1A) dopamine receptor (P21728 whole entry): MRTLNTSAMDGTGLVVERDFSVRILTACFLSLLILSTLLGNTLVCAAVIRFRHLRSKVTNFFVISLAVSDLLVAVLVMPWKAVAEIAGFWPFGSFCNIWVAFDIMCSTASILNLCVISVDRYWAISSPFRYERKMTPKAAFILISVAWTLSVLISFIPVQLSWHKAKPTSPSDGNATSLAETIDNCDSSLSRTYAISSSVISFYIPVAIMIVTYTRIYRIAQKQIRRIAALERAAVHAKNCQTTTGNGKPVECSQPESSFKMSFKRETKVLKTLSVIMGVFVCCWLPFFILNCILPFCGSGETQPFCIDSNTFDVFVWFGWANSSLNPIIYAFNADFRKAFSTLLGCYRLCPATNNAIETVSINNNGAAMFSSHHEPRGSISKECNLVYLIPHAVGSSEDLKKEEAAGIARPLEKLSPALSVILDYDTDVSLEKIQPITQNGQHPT

[5] = target: T3, Muscarinic acetylcholine receptor M1 (Homo sapiens, UniProt P11229); test: Binding affinity against muscarinic M1 receptor
T3 sequence (P11229 whole entry): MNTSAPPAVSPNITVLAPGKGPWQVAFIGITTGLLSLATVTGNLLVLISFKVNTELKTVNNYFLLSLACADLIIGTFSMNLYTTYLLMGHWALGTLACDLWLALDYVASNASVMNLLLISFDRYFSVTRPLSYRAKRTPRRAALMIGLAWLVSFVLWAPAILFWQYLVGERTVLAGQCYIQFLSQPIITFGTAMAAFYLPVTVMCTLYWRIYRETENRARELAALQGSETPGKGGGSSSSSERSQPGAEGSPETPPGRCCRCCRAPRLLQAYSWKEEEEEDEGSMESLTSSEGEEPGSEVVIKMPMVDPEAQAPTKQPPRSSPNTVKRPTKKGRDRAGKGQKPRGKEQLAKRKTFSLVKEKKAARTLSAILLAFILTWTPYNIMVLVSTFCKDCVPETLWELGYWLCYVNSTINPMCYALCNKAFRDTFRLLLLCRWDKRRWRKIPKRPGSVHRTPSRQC

Oryctolagus cuniculus = organism: Oryctolagus cuniculus; test: Tested in vitro for its ability to block 5-HT2A induced contraction of rabbit isolated aorta; type: functional
D(4) dopamine receptor = target: T4, D(4) dopamine receptor (Homo sapiens, UniProt P21917); test: Binding affinity against dopamine D4 receptor
T4 sequence (P21917 whole entry): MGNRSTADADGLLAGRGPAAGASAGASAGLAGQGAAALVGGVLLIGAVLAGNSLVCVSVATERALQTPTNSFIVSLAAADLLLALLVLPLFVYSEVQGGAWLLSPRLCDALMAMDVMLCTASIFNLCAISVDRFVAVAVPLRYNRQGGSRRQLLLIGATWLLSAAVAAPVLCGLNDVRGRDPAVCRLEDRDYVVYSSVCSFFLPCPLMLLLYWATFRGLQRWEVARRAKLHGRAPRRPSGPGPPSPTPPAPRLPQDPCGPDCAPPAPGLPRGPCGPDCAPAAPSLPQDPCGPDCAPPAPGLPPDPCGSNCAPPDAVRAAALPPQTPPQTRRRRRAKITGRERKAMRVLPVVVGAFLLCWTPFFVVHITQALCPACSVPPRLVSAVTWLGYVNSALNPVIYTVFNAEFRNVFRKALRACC

D(3) dopamine receptor = D(3) dopamine receptor (Homo sapiens, UniProt P35462); test: Binding affinity against dopamine D3 receptor
Chain of D(3) dopamine receptor (P35462 whole entry): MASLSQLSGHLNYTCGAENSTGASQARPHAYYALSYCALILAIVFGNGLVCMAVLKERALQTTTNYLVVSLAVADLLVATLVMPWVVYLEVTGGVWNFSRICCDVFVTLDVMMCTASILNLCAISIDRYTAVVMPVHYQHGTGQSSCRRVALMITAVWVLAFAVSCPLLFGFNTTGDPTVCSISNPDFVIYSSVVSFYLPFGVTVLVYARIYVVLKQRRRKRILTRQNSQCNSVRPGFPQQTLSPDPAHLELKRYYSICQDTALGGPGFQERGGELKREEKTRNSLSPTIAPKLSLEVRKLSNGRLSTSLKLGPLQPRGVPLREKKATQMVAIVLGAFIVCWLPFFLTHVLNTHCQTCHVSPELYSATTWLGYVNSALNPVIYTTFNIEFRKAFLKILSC

Canis familiaris = organism: Canis familiaris; settings: Canis lupus familiaris; Saphenous vein; filed as antagonist

Chain of 5-hydroxytryptamine receptor 4 (Q13639 whole entry): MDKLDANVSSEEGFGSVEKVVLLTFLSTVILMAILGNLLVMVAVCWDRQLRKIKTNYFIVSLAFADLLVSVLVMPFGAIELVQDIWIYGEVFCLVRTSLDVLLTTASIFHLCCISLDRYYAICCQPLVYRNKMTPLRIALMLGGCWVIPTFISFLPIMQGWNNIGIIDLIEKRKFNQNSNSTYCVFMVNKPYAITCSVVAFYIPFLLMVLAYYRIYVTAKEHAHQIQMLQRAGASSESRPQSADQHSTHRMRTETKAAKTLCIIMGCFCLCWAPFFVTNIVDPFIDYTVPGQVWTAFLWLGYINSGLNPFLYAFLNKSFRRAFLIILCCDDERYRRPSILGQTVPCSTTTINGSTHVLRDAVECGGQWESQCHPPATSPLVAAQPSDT

Compound: COc1ccc(NC(=O)c2ccc(-c3ccc(-c4noc(C)n4)cc3C)cc2)cc1N1CCN(C)CC1 [GR-127935]
- Ki [1]: > 10 µM
- Ki [2]: 0.316 µM
- Log Ki [3]: -5.2
- Log Ki [4]: > -6
- Ki (D(2) dopamine receptor): > 10 µM
- Ki (D(1A) dopamine receptor): > 10 µM
- Ki [5]: > 1 µM
- pKB (Oryctolagus cuniculus): 6.4
- Ki (D(4) dopamine receptor): > 10 µM
- Ki (D(3) dopamine receptor): > 10 µM
- pKB (Canis familiaris): Antagonist
